Data published in patent publication US9815783B2, “(3-alkylthio)propenoic acid-derived compounds and their application in cosmetics” (EXSYMOL, priority 2015, dated 2017).

Experiments:
[1] = Antioxidant potential against squalene hydroperoxidation by singlet oxygen (quenching, methylene blue, UV-B, HPLC); conditions: UV-B radiation dose 1.42 J·cm−2, methylene blue photosensitizer
Experimental: Experimentally, a squalene solution at 5 g/100 mL, a methylene blue solution at 5 mM and a solution of the compound according to the invention (from 1 to 5 mM) or a control compound (methylthiopropylamido acetyl methionine-AMDM) were prepared after being dissolved in 100 mL of methanol (HPLC grade). Then in a UV-B oven, each solution was poured in equal parts into an uncovered Petri dish, in order to be submitted to a radiation dose (1D) of 1.42 J·cm^−2. At the end of the radiation, volumes of the solutions were recovered, adjusted to 20 mL with methanol prior to analysis by HPLC assay and after removal of methylene blue. The “quenching,” rate was then deduced from the following equation: [formula]

HaCaT keratinocytes [2] = assay: Cytotoxic potential of sulfoxide and sulfone oxidation by-products on HaCaT keratinocytes (MTT method); format: cell-based; conditions: 2.5 mM in PBS, average of three independent experiments, control = 100
Experimental: Test 2: Evidence of the Absence of Cytotoxic Potential of the Oxidation by-Products of the (Z)-Isomer Conjugates of Formula (I)
Experimentally, the test was carried out on a cell line of immortalized keratinocytes “HaCaT” maintained by subculture in a complete culture medium “DMEM” (with 10% foetal calf serum) in a humid atmosphere at 37° C. and 5% CO2. HaCaT cells were seeded in 24-well plates at the rate of 1·10^5 cells per well.
Sulfoxide and sulfone derivatives of (Z)-isomer conjugates of formula (I) were synthesized after a stoichiometric exposure to hydrogen peroxide (H2O2), then purified and finally quantified.
500 μl of sulfoxide and sulfone oxidation by-products from the conjugates according to the invention were added in each well, at the concentration of 2.5 mM in PBS. After removal of the medium, the HaCaT keratinocytes cell viability was measured using the “MTT method” (MTT standing for (4,5-dimethylthiazol-2-yl)-2,5-diphenyltetrazolium bromide) (solution at 500 μg/ml) and by spectrophotometry (absorbance at 550 nm). Expressed as the average values obtained from three independent experiments, the results are gathered in table 2 below, in comparison with those obtained for the non-irradiated cells.

[3] = Photo-isomerization of (Z)-isomer conjugates to E-isomer under UV-B irradiation (HPLC); format: physicochemical; conditions: 2.5 mM in methanol with squalene; UV-B irradiation dose 1 J·cm−2; formation of E-isomer by HPLC
Experimental: Test 4: Evidence of the Ability of the (Z)-Isomer Conjugates of Formula (I) to Absorb Ultraviolet Radiation by Photo-Isomerization
Principle: the aim is to check whether the conjugates according to the invention are able to isomerize under UV-B irradiation.
Experimentally, 2 ml of a squalene solution at 5 g/100 mL and 2 mL of a solution of compound according to the invention at the concentration of 25 mM in methanol were introduced into a 20 mL measuring cylinder, and then supplemented with methanol up to 20 mL. The preparation thus obtained was poured into a Petri dish onto which an irradiation dose of 1 J·cm^−2 was applied in a UV-B oven. At the end of the irradiation, the solutions were collected and analyzed by HPLC dosage. Volumes were previously standardized with methanol.
Chromatographic profiles were thus obtained, and the formation of the E-isomer was investigated. An isomerization rate was then determined by comparison with a control profile.

[4] = Opposition to trans-urocanic acid photo-induced isomerization (HPLC); conditions: compound 5 mM, irradiation dose 31 mJ·cm−2
Experimental: Test 5: Evidence of the Ability of the (Z)-Isomer Conjugates of Formula (I) to Oppose the Trans-Urocanic Acid Photo-Induced Isomerization
Principle: the aim is to check whether the conjugates according to the invention are capable of opposing the trans-urocanic acid photo-isomerization.
Experimentally, the study was carried out almost identically as in tests 1 and 4 above. Beforehand, it was checked that under defined experimental conditions, trans-urocanic acid generates a significant amount of cis-urocanic acid that can be measured by HPLC analysis. The irradiation dose (1D) was 31 mJ·cm^−2 for a compound concentration of 5 mM.

HaCaT keratinocytes [5] = assay: Viability of HaCaT keratinocytes exposed to UV-B cytotoxic doses (MTT method); format: cell-based; conditions: Homo sapiens, light or radiation study, UV-B 100 mJ/cm2, MTT after 24 hours, irradiated untreated control 46, non-irradiated 100, read-out: % cell viability; for viability at 100 µM: 0.1 mM in PBS; for viability at 250 µM: 0.25 mM in PBS; for viability at 500 µM: 0.5 mM in PBS
Experimental: Test 3: Evidence of the Ability of the (Z)-Isomer Conjugates of Formula (I) to Make Viable a Keratinocyte Cell Line Exposed to UV-B Cytotoxic Doses
Experimentally, the study was also carried out on a cell line of immortalized keratinocytes “HaCaT” seeded in 24-well plates at a rate of 8000 cells per square centimeter, namely 15200 cells per welkin 0.5 ml culture medium (with 10% foetal calf serum).
500 μl of the conjugate according to the invention were added in each well at a concentration from 0.05 to 0.5 mM in PBS. The cells in the presence of active ingredient were then exposed to ultraviolet radiations (UV-B) at the moderate dose of 100 mJ·cm−^2, and then placed into a medium without active ingredient for 24 hours. After removal of the medium, the HaCaT keratinocytes cell viability was also measured using the “MTT method” (solution at 250 μg/ml) and by spectrophotometry (absorbance at 570 nm). Gathering the average values obtained from three independent experiments, the results are presented in table 3 below, in comparison with those obtained for two controls, the non-irradiated cells and the non-treated irradiated cells with the conjugates according to the invention.

Structure (SMILES) | % squalene protection ([1]; compound 1 mM in methanol) | % isomerization [3] | viability at 500 µM (HaCaT keratinocytes [5]) | % squalene protection ([1]; compound 5 mM in methanol) | also measured
CS/C=C/C(=O)NCCO [(E)-N-(2-hydroxyethyl)-3-(methylthio)propenamide] | 71% | – | – | – | –
CS(=O)(=S)/C=C\C(=O)NCCO (stereo not shown) [(Z)-N-(2-hydroxyethyl)-3-(methylthiosulfonyl)propenamide] | – | – | – | – | % cell viability (HaCaT keratinocytes [2]): 93.1%
CS/C=C\C(=O)NCCO [(Z)-N-(2-hydroxyethyl)-3-(methylthio)propenamide] | 24% | 62% | 94% | 25% | % inhibition of trans-urocanic acid photo-isomerization [4]: 75%; viability at 100 µM (HaCaT keratinocytes [5]): 64%; viability at 250 µM (HaCaT keratinocytes [5]): 85%
CS/C=C/C(=O)NCCc1ccc(O)cc1 [(E)-N-(4-hydroxyphenethyl)-3-(methylthio)propenamide] | 30% | – | – | – | –
CS(=O)(=S)/C=C\C(=O)NCCc1ccc(O)cc1 (stereo not shown) [(Z)-N-(4-hydroxyphenethyl)-3-(methylthiosulfonyl)propenamide] | – | – | – | – | % cell viability (HaCaT keratinocytes [2]): 95.0%
CS/C=C\C(=O)NCCc1ccc(O)cc1 [(Z)-N-(4-hydroxyphenethyl)-3-(methylthio)propenamide] | 35% | 95% | 100% | 44% | % inhibition of trans-urocanic acid photo-isomerization [4]: 78%; viability at 100 µM (HaCaT keratinocytes [5]): 70%; viability at 250 µM (HaCaT keratinocytes [5]): 93%
CSCCCNC(=O)C(CCSC)NC(C)=O (stereo not shown) [AMDM, methylthiopropylamido acetyl methionine, reference compound] | 3% | – | – | 15% | –
CCNC(=O)/C=C\SC [(Z)-N-ethyl-3-(methylthio)propenamide] | – | 60% | 86% | – | –
